The text below walks through data of patent publication US20160145247A1, “Aminomethyl-Biaryl Derivatives Complement Factor D inhibitors and uses thereof” (NOVARTIS AG, priority 2013, published 2016).

T1 sequence (P00746 26-253): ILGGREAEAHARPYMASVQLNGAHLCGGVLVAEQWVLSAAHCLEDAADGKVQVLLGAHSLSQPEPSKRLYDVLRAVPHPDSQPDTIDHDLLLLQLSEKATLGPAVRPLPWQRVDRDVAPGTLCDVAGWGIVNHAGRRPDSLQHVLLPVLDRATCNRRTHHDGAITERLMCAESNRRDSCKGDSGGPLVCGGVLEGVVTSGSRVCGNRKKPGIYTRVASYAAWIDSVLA

The experiment concerns the target T1, factor D (Homo sapiens, UniProt P00746).
T1 construct: made in house; host or cells: E. coli
Put plainly: factor D inhibition assay of Biological Example 2. The format is biochemical.
The term IC50 denotes the concentration that gives 50% inhibition. A higher IC50 goes with weaker potency. `COc1ccc(COc2ccccc2CC(=O)O)cc1-c1cccc([C@H](N)CO)c1` [Example 127-B, (S)-2-(2-((3′-(1-Amino-2-hydroxyethyl)-6-methoxy-[1,1′-biphenyl]-3-yl)methoxy)phenyl)acetic acid] returned an IC50 of 0.062 µM. As for `CC(C)[C@@H](N)c1cccc(-c2cccc(COc3ccccc3CC(=O)O)c2)c1` [Example 190-F], the midpoint of inhibition, the IC50, lay at 3.15 µM. As for `NCc1cc(F)cc(-c2cccc(C(=O)Nc3ccccc3CC(=O)O)c2)c1` [Example 6-B, 2-(2-(3′-(Aminomethyl)-5′-fluoro-[1,1′-biphenyl]-3-ylcarboxamido)phenyl)acetic acid], the figure is 0.106 µM. As to `C[C@H](N)c1cccc(-c2cc(COc3ccccc3CC(=O)O)cc(OCC3(C)CC3)c2)c1F` [Example 260, (S)-2-(2-((3′-(1-aminoethyl)-2′-fluoro-5-((1-methylcyclopropyl)methoxy)-[1,1′-biphenyl]-3-yl)methoxy)phenyl)acetic acid], the IC50 was found to be 0.039 µM.

In turn, `NCc1cccc(-c2cc(NC[C@@H]3CCCO3)cc(C(=O)Nc3ccccc3CC(=O)O)n2)c1` [Example 45, (S)-2-(2-(6-(3-(Aminomethyl)phenyl)-4-(((tetrahydrofuran-2-yl)methyl)amino)picolinamido)phenyl)acetic acid] showed an IC50 of 0.012 µM.

Take `NC(CCO)c1cccc(-c2cccc(C(=O)Nc3ccccc3CC(=O)O)c2)c1` (racemic) [Example 87, (±)-2-(2-(3′-(1-amino-3-hydroxypropyl)-[1,1′-biphenyl]-3-ylcarboxamido)phenyl)acetic acid]: the half-inhibitory concentration (IC50) is 0.814 µM. The same measure for `C[C@H](N)c1cccc(-c2cc(COc3ccccc3CC(=O)O)cc(S(C)(=O)=O)c2)c1F` [Example 252, (S)-2-(2-((3′-(1-aminoethyl)-2′-fluoro-5-(methylsulfonyl)-[1,1′-biphenyl]-3-yl)methoxy)phenyl)acetic acid]: 1.58 µM; for `N[C@@H](CCO)c1cccc(-c2cccc(C(=O)Nc3ccccc3CC(=O)O)c2)c1` [Example 89, (S)-2-(2-(3′-(1-Amino-3-hydroxypropyl)-[1,1′-biphenyl]-3-ylcarboxamido)phenyl)acetic acid]: 5.25 µM; for `NC(CF)c1cccc(-c2cc(COc3ccccc3CC(=O)O)cc(OC[C@H]3CCCO3)c2)c1F` (single isomer, unassigned; (+)) [Example 212-B]: 0.006 µM. In the case of `C[C@@H](N)c1cccc(-c2cc(COc3ccccc3CC(=O)O)cc(COC(F)F)c2)c1F` [Example 120-X], it took 0.004 µM to reach half-maximal inhibition (IC50). The same measure for `N[C@H](CCO)c1cccc(-c2cccc(COc3ccccc3CC(=O)O)c2)n1` [Example 190-H]: 1.12 µM; for `C[C@@H](N)c1cccc(-c2cc(Cl)cc(COc3ccccc3CC(=O)O)c2)c1F` [Example 216-S]: 0.021 µM; for `CCNc1cc(COc2ccccc2CC(=O)O)cc(-c2cccc([C@@H](C)N)c2F)c1` [Example 151, (R)-2-(2-((3′-(1-aminoethyl)-5-(ethylamino)-2′-fluoro-[1,1′-biphenyl]-3-yl)methoxy)phenyl)acetic acid]: 0.006 µM. As for `C[C@@H](N)c1cccc(-c2cc(CCC3CCCN3)cc(COc3ccccc3CC(=O)O)c2)c1F` (stereo partly drawn) [Example 238, 2-(2-((3′-((R)-1-aminoethyl)-2′-fluoro-5-(2-(pyrrolidin-2-yl)ethyl)-[1,1′-biphenyl]-3-yl)methoxy)phenyl)acetic acid], the figure is 0.023 µM; as for `NCc1cccc(-c2cccc(COc3ccccc3CC(=O)O)c2)n1` [Example 138-N], 0.028 µM; as for `CNc1cc(COc2ccccc2CC(=O)O)cc(-c2cccc([C@H](N)CO)c2)c1` [Example 131, (S)-2-(2-((3′-(1-Amino-2-hydroxyethyl)-5-(methylamino)-[1,1′-biphenyl]-3-yl)methoxy)phenyl)acetic acid], 0.018 µM. As for `CC(O)c1cc(COc2ccccc2CC(=O)O)cc(-c2cccc([C@H](N)CO)c2)c1` (single isomer, unassigned) [116-E b) (tr = 5.7 min)], the figure is 0.013 µM.

Consider `N[C@H](CO)c1cccc(-c2cc(COc3ccccc3CC(=O)O)c3c(c2)OCO3)c1` [Example 255, (S)-2-(2-((6-(3-(1-amino-2-hydroxyethyl)phenyl)benzo[d][1,3]dioxol-4-yl)methoxy)phenyl)acetic acid], for which the IC50 is 0.009 µM. As for `NCc1cc(-c2cccc(COc3ccccc3CC(=O)O)c2)ccn1` [Example 138-G], the figure is 0.012 µM; as for `NC(CF)c1cccc(-c2cc(COc3ccccc3CC(=O)O)cc(CN3CCOCC3)c2)c1F` (single isomer, unassigned) [Example 217-D, (+) or (−)-2-(2-((3′-(1-Amino-2-fluoroethyl)-2′-fluoro-5-(morpholinomethyl)-[1,1′-biphenyl]-3-yl)methoxy)phenyl)acetic acid], 0.063 µM; as for `C[C@@H](N)c1cccc(-c2cc(CCCF)cc(COc3ccccc3CC(=O)O)c2)c1F` [Example 269-E, (R)-2-(2-((3′-(1-aminoethyl)-2′-fluoro-5-(3-fluoropropyl)-[1,1′-biphenyl]-3-yl)methoxy)phenyl)acetic acid], 0.009 µM. For `C[C@@H](N)c1cccc(-c2cc(COc3ccccc3CC(=O)O)cc(OCC3(C)COC3)c2)c1` [Example 263, (R)-2-(2-((3′-(1-aminoethyl)-5-((3-methyloxetan-3-yl)methoxy)-[1,1′-biphenyl]-3-yl)methoxy)phenyl)acetic acid], the IC50 came to 0.014 µM.

With `C[C@@H](N)c1cccc(-c2cc(COc3ccccc3CC(=O)O)cc(OCc3ccncc3)c2)c1F` [Example 214-F], it took 0.003 µM to reach half-maximal inhibition (IC50). For the compound `C[C@@H](N)c1cccc(-c2cc(CCC3CNCCO3)cc(COc3ccccc3CC(=O)O)c2)c1F` (stereo partly drawn) [Example 239-C, 2-(2-((3′-((R)-1-aminoethyl)-2′-fluoro-5-(2-(morpholin-2-yl)ethyl)-[1,1′-biphenyl]-3-yl)methoxy)phenyl)acetic acid], half-maximal inhibition (IC50) required 0.013 µM. With `C[C@@H](N)c1cccc(-c2cc(COc3ccccc3CC(=O)O)cc(OCCN3CCCC3)c2)c1F` [Example 214-G], the midpoint of inhibition, the IC50, lay at 0.022 µM. The same measure for `NCc1cc(F)cc(-c2cc(OC[C@H]3CCCO3)cc(C(=O)Nc3ccccc3CC(=O)O)c2)c1` [Example 76, (R)-2-(2-(3′-(Aminomethyl)-5′-fluoro-5-((tetrahydrofuran-2-yl)methoxy)-[1,1′-biphenyl]-3-ylcarboxamido)phenyl)acetic acid]: 0.006 µM. Regarding `C[C@@H](N)c1cccc(-c2cc(COc3ccccc3CC(=O)O)cc(NCCF)c2)c1F` [Example 216-K], 0.002 µM corresponded to half-maximal inhibition (IC50). As to `Cn1cc(-c2cc(COc3ccccc3CC(=O)O)cc(-c3cccc(CN)c3)c2)cn1` [Example 208-H], it took 0.004 µM to reach half-maximal inhibition (IC50). As for `N[C@H](CO)c1cccc(-c2cc(COc3ccccc3CC(=O)O)cc(C(O)C3CCCCC3)c2)c1` (single isomer, unassigned) [116-I b) (tr = 4.0 min)], the figure is 0.026 µM.

`CCc1ccc(CC(=O)O)c(OCc2cccc(-c3cccc(CN)c3)c2)c1` [Example 293, 2-(2-((3′-(aminomethyl)-[1,1′-biphenyl]-3-yl)methoxy)-4-ethylphenyl)acetic acid] yielded an IC50 of 0.005 µM. As for `N[C@H](CCF)c1cccc(-c2cc(Cl)cc(COc3ccccc3CC(=O)O)c2)c1` [Example 279-B, (R)-2-(2-((3′-(1-amino-3-fluoropropyl)-5-chloro-[1,1′-biphenyl]-3-yl)methoxy)phenyl)acetic acid], the figure is 0.29 µM. In turn, `N[C@H](CO)c1cccc(-c2cc(CCCF)cc(COc3ccccc3CC(=O)O)c2)c1` [Example 272, (S)-2-(2-((3′-(1-amino-2-hydroxyethyl)-5-(3-fluoropropyl)-[1,1′-biphenyl]-3-yl)methoxy)phenyl)acetic acid] registered an IC50 of 0.01 µM. The same measure for `NCc1cccc(-c2cccc(COc3ccc(C(N)=O)cc3CC(=O)O)c2)c1` [Example 294-G]: 4.03 µM; for `CN(Cc1cc(COc2ccccc2CC(=O)O)cc(-c2cccc(CN)c2)c1)CC(F)(F)F` [Example 208-G]: 0.006 µM. As to `CCOc1cc(COc2ccccc2CC(=O)O)cc(-c2cccc([C@@H](C)N)c2F)c1` [Example 256-B, (R)-2-(2-((3′-(1-Aminoethyl)-5-ethoxy-2′-fluoro-[1,1′-biphenyl]-3-yl)methoxy)phenyl)acetic acid], half-maximal inhibition (IC50) was put at 0.003 µM. As for `NCc1cccc(-c2cc(N3CCOCC3)cc(C(=O)Nc3ccccc3CC(=O)O)n2)c1` [Example 44, 2-(2-(6-(3-(Aminomethyl)phenyl)-4-morpholinopicolinamido)phenyl)acetic acid], the half-inhibitory concentration (IC50) was determined as 0.009 µM. Take `CCC[C@@H](N)c1cccc(-c2cc(COc3ccccc3CC(=O)O)cc(N3CCCC3)c2)c1F` [Example 199-A]: the IC50 was determined as 0.148 µM. As for `C[C@@H](N)c1cccc(-c2cc(COc3ccccc3CC(=O)O)cc(OCCF)c2)c1F` [Example 214-C], the figure is 0.008 µM; as for `NCc1cccc(-c2ccc3c(c2)C(Oc2ccccc2CC(=O)O)CCC3)c1` (single isomer, unassigned) [175 b) (tr = 9.5 min), (−) or (+)-(2-((7-(3-(aminomethyl)phenyl)-1,2,3,4-tetrahydronaphthalen-1-yl)oxy)phenyl)acetic acid], 0.25 µM. The same measure for `C[C@@H](N)c1cccc(-c2cc(COc3ccccc3CC(=O)O)cc(OCCN3CCOCC3)c2)c1F` [Example 214-A]: 0.01 µM. The same measure for `NCc1cccc(-c2cccc(COc3ccc(Br)cc3CC(=O)O)c2)c1` [Example 168, 2-(2-((3′-(Aminomethyl)-[1,1′-biphenyl]-3-yl)methoxy)-5-bromophenyl)acetic acid]: 0.027 µM. Regarding `N[C@H](CO)c1cccc(-c2ccnc(COc3ccccc3CC(=O)O)c2)c1` [Example 170, (S)-2-(2-((4-(3-(1-Amino-2-hydroxyethyl)phenyl)pyridin-2-yl)methoxy)phenyl)acetic acid], the 50% inhibitory concentration (IC50) stood at 0.022 µM. `C[C@@H](N)c1cccc(-c2cc(COc3ccccc3CC(=O)O)c3cn[nH]c3c2)c1F` [Example 211-C] returned an IC50 of 0.009 µM. On to `C[C@@](N)(CO)c1cccc(-c2cccc(COc3ccccc3CC(=O)O)c2)c1` [Example 142-F], for which 0.26 µM corresponded to half-maximal inhibition (IC50).
